The record followed here is patent publication US20230078764A1 (Yumanity Therapeutics, Inc., priority 2019, published 2023).

In assay [1] the target is T1, human SCD1 (Homo sapiens, UniProt O00767).
T1 construct: expressed in transfected cells; host or cells: yeast strain with OLE1 deleted, plasmid-borne human SCD1 (selected in SD-Ura)
T1 sequence (O00767 1-359): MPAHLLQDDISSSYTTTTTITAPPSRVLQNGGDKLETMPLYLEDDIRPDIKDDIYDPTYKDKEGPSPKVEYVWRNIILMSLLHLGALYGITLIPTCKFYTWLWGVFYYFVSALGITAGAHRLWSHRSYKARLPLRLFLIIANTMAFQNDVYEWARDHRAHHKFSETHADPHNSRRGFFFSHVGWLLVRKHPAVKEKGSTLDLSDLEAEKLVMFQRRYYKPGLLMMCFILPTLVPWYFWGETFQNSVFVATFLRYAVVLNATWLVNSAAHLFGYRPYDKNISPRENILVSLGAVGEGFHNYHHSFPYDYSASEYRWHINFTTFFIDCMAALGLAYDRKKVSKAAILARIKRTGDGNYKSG
The experiment in a line: Growth inhibition of yeast strain expressing human SCD1 as sole desaturase (OLE1 deleted), OD600 readout. The conditions noted are these: yeast strain expressing human SCD1 as sole desaturase; growth (OD600) after 40 h at 30° C.; read-out: SCD1 IC50. The format is cell-based.

Assay [2] deals with T2, human SCD5 (Homo sapiens, UniProt Q86SK9).
T2 construct: expressed in transfected cells; host or cells: yeast strain with OLE1 deleted, plasmid-borne human SCD5 (selected in SD-Ura)
T2 sequence (Q86SK9 1-330): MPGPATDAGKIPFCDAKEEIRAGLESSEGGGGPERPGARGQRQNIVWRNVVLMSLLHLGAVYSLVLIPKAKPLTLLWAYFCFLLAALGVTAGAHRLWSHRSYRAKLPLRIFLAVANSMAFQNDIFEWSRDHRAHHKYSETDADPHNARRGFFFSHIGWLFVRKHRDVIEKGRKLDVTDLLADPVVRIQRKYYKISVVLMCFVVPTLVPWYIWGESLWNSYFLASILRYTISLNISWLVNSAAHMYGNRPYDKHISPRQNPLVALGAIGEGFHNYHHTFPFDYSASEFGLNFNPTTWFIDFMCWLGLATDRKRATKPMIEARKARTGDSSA
Description: Growth inhibition of yeast strain expressing human SCD5 as sole desaturase (OLE1 deleted), OD600 readout. The assay is classed as cell-based. The conditions noted are these: yeast strain expressing human SCD5 as sole desaturase; growth (OD600) after 40 h at 30° C.; read-out: SCD5 IC50.

For the compound `Cn1cc(C(=O)N2CCC(Oc3cccc(Cl)c3)CC2)ccc1=O` [Compound 464], the half-maximal inhibitory concentration (IC50) in assay [1] and in assay [2] was more than 45000 nM throughout.

For the compound `Cn1cc(C(=O)N[C@H]2CC[C@@H](Cc3cccc(Cl)c3)CC2)ccc1=O` [Compound 465], the IC50 in assay [1] and in assay [2] was more than 45000 nM throughout.

As to `Cn1cc(C(=O)NC2CCC(Oc3cccc(Cl)c3)CC2)ccc1=O` (stereo not drawn) [Compound 466], the IC50 in assay [1] and in assay [2] was more than 45000 nM throughout.

For `Cn1cc(-c2ccc(C(=O)NCc3cccc(F)c3)nc2)ccc1=O` [Compound 467], the IC50 in assay [1] and in assay [2] was more than 45000 nM throughout.

For the compound `CN1N=C(C(=O)Nc2ccc(CC3CC3)cn2)CCC1=O` [Compound 468], the IC50 in assay [1] and in assay [2] was more than 45000 nM each time.

`Cc1ccnc(Cc2ccc(NC(=O)C3=NN(C)C(=O)CC3)nc2)c1` [Compound 469]: the IC50 in assay [1] and in assay [2] was more than 45000 nM each time.

Take `CN1N=C(C(=O)Nc2ccc(Cc3ccc(C#N)c(F)c3)cn2)CCC1=O` [Compound 470]: the IC50 in assay [1] and in assay [2] was more than 45000 nM in each case.

As for `CN1N=C(C(=O)Nc2cc(Cc3cccc(Cl)c3)cnc2N)CCC1=O` [Compound 471], the IC50 in assay [1] and in assay [2] was more than 45000 nM each time.

For `CC(O)C1CN(C(=O)Nc2ccc(Cc3cccc(Cl)c3)cn2)C1` (stereo not drawn) [Compound 472], the IC50 in assay [1] and in assay [2] was more than 45000 nM in each case.

With `Cn1cc(C(=O)Nc2nnc(Cc3ccc(F)cc3)s2)ccc1=O` [Compound 473], the half-maximal inhibitory concentration (IC50) in assay [1] and in assay [2] was more than 45000 nM in each case.

Regarding `Cn1nc(C(=O)Nc2ccc(CC3CCCCC3)cn2)cc1O` [Compound 476], the 50% inhibitory concentration (IC50) (commonly the point on the concentration scale where inhibition reaches its midpoint) in assay [1] was more than 45000 nM; in assay [2] it was 7600 nM.

As for `CN1N=C(C(=O)Nc2ccc(C=C3CCCCC3)cn2)CCC1=O` [Compound 477], the IC50 in assay [1] is more than 45000 nM; in assay [2], 18000 nM.

With `N#Cc1ccc(C(=O)Nc2ccc(Cc3cc(F)cc(F)c3)cn2)cn1` [Compound 478], the IC50 in assay [1] came to 2100 nM; in assay [2] it was 19 nM.

`COCc1ncc(C(=O)Nc2ccc(Cc3cccc(Cl)c3)cn2)cn1` [Compound 479]: the IC50 in assay [1] came to 12000 nM; in assay [2], 680 nM.

For the compound `CN1CC=C(C(=O)Nc2ccc(Cc3cccc(F)c3)cn2)NC1=O` [Compound 480], the IC50 in assay [1] is 3500 nM; in assay [2], 230 nM.

For `O=C(Nc1ccc(Cc2cccc(F)c2)cn1)c1cncc(CO)c1` [Compound 481], the results for the IC50 in assay [1] and in assay [2] were 120 nM and 27 nM, respectively.

For the compound `N#Cc1ccc(C(=O)Nc2ccc(CNc3cccc(Cl)c3)cn2)cn1` [Compound 482], the values for the half-maximal inhibitory concentration (IC50) in assay [1] and in assay [2] were 4800 nM and 620 nM, respectively.

As to `O=C(Nc1ccc(Cc2cccc(Cl)c2)cn1)c1cncc(CO)c1` [Compound 483], the IC50 in assay [1] was determined as 75 nM; in assay [2], 17 nM.

Turning to `Cc1ccc(C(=O)Nc2ccc(Cc3cc(F)cc(F)c3)cn2)nn1` [Compound 484], the IC50 is 530 nM in assay [1] and 14 nM in assay [2].

For `Cc1nccc(C(=O)Nc2ccc(Cc3ccc(F)c(F)c3)cn2)n1` [Compound 485], the IC50 turned out to be 210 nM in assay [1] and 21 nM in assay [2].

For the compound `COc1nccc(C(=O)Nc2ccc(Cc3ccc(F)c(F)c3)cn2)n1` [Compound 486], the IC50 was 7800 nM in assay [1] and 110 nM in assay [2].

Turning to `Cn1cc(NC(=O)c2ccc(COc3cccc(Cl)c3)cn2)ccc1=O` [Compound 487], the IC50 in assay [1] was 4600 nM; in assay [2] it was 310 nM.

Take `Cn1cc(NC(=O)c2ccc(COc3ccc(F)c(Cl)c3)cn2)ccc1=O` [Compound 488]: the half-maximal inhibitory concentration (IC50) in assay [1] was 5800 nM; in assay [2], 109 nM.

Take `CCn1nc(C(=O)Nc2ccc(Cc3cccc(Cl)c3)cn2)cc1O` [Compound 489]: the IC50 is more than 45000 nM in assay [1] and 544 nM in assay [2].

As for `O=C(Nc1ccc(Cc2cccc(F)c2)cn1)c1ncc(Br)cn1` [Compound 490], the results for the IC50 in assay [1] and in assay [2] were more than 45000 nM and 2200 nM, respectively.

As for `CC(C)(C#N)c1ccc(C(=O)Nc2ccc(Cc3cccc(Cl)c3)cn2)cn1` [Compound 491], the 50% inhibitory concentration (IC50) in assay [1] is 25000 nM; in assay [2], 6500 nM.

Take `N#Cc1ccc(C(=O)Nc2ccc(COc3cccc(Cl)c3)cn2)cn1` [Compound 492]: the IC50 in assay [1] was more than 45000 nM; in assay [2] it was 5800 nM.

`N#Cc1ccc(C(=O)Nc2ccc(Cc3cc(F)cc(F)c3)cn2)nc1` [Compound 493]: the IC50 was determined as 32000 nM in assay [1] and 43 nM in assay [2].

For `O=C(Nc1ccc(Cc2cccc(Cl)c2)cn1)c1cnc(CO)nc1` [Compound 494], the IC50 in assay [1] and in assay [2] was 10 nM each time.

Take `Cn1nc(NC(=O)c2ccc(Cc3ccc(F)cc3)cn2)ccc1=O` [Compound 495]: the results for the IC50 in assay [1] and in assay [2] were 560 nM and 15 nM, respectively.

In the case of `Cn1cc(NC(=O)c2ccc(Cc3ccc(F)cc3)cn2)ccc1=O` [Compound 496], the IC50 in assay [1] was 222 nM; in assay [2] it was 10 nM.

In the case of `O=C(Nc1ccc(Cc2cccc(F)c2)cn1)c1cc(CO)ccn1` [Compound 497], the IC50 in assay [1] and in assay [2] was 10 nM in each case.

Regarding `N#Cc1ccc(C(=O)Nc2ccc(CNc3cccc(Cl)c3)cn2)nc1` [Compound 498], the IC50 in assay [1] was 2700 nM; in assay [2], 5200 nM.

As for `C=C(c1ccc(C(=O)Nc2ccc(Cc3cccc(Cl)c3)cn2)cn1)C(F)(F)F` [Compound 499], the IC50 in assay [1] is 10000 nM; in assay [2] it was 820 nM.

Regarding `N#Cc1cnc(C(=O)Nc2ccc(Cc3cccc(F)c3)cn2)nc1` [Compound 500], the IC50 was more than 45000 nM in assay [1] and 10 nM in assay [2].

For `C#CCn1nc(C(=O)Nc2ccc(Cc3cccc(Cl)c3)cn2)ccc1=O` [Compound 501], the IC50 in assay [1] and in assay [2] was 10 nM in each case.

For `CC(=O)c1ccc(C(=O)Nc2ccc(Cc3cccc(Cl)c3)cn2)nc1` [Compound 502], the IC50 in assay [1] was more than 45000 nM; in assay [2], 10 nM.

In the case of `O=C(Nc1ccc(Cc2ccc(F)c(F)c2)cn1)c1cncc(CO)c1` [Compound 503], the values for the IC50 in assay [1] and in assay [2] were 12 nM and 10 nM, respectively.

For `O=C(Nc1ccc(Cc2cccc(F)c2)cn1)c1ncc(F)cn1` [Compound 504], the IC50 in assay [1] was 2800 nM; in assay [2], 260 nM.

As to `O=C(Nc1ccc(Cc2cccc(F)c2)cn1)c1ccnc(C2CC2)n1` [Compound 506], the IC50 in assay [1] worked out at 1500 nM; in assay [2], 14 nM.

As for `CC(=O)c1ccc(C(=O)Nc2ccc(Cc3ccc(F)c(F)c3)cn2)nc1` [Compound 507], the IC50 in assay [1] was determined as 980 nM; in assay [2] it was 1200 nM.

For `Cn1c(C(=O)Nc2ccc(Cc3ccc(F)c(F)c3)cn2)coc1=O` [Compound 508], the IC50 in assay [1] came out at 2600 nM; in assay [2], 450 nM.

With `Cn1c(C(=O)Nc2ccc(Cc3cc(F)cc(F)c3)cn2)coc1=O` [Compound 509], the concentration for half-maximal inhibition (IC50) in assay [1] turned out to be 430 nM; in assay [2], 120 nM.

Take `CC(O)c1ccc(C(=O)Nc2ccc(Cc3cccc(Cl)c3)cn2)nc1` (stereo not drawn) [Compound 510]: the 50% inhibitory concentration (IC50) was 100 nM in assay [1] and 77 nM in assay [2].

Consider `CC(O)c1ccc(C(=O)Nc2ccc(Cc3ccc(F)c(F)c3)cn2)nc1` (stereo not drawn) [Compound 511], for which the IC50 in assay [1] worked out at 143 nM; in assay [2], 190 nM.
